This note sets out measurements from patent EP3381906A1, “COMPOUNDS FOR USE AS HEPARANASE INHIBITORS” (Leadiant Biosciences SA, priority 2017, dated 2018).

For experiment [1], the target named is T1, heparanase (Homo sapiens, UniProt Q9Y251).
T1 construct: 100 µM fondaparinux, 2.5 nM heparanase and serial dilutions of test compounds
T1 sequence (Q9Y251 158-543 limits assumed): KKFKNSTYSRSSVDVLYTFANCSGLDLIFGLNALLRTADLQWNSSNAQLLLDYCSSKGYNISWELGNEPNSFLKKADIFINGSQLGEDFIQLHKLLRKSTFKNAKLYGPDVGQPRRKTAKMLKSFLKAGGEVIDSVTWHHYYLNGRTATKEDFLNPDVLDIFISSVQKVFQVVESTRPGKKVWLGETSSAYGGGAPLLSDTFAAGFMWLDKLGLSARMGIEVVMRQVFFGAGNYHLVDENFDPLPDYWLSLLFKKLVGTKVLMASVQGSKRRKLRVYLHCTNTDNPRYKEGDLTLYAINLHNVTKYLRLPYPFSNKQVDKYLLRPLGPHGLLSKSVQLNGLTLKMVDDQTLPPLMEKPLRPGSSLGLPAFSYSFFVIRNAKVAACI
T1 sequence (Q9Y251 36-109 limits assumed): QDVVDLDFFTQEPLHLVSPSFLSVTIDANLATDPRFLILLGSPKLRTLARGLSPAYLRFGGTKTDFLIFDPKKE
The experiment is described as follows: AGA*IA assay: heparanase-catalyzed fondaparinux cleavage, colorimetric (WST-1). Type of experiment: biochemical. The protocol:
All compounds were tested in a simple, accurate and robust microplate assay based on the cleavage of the synthetic heparin fragment, the pentasaccharide Fondaparinux (AGA*IA). This assay was originally developed by Hammond and coworkers [Hammond E, Li CP, Ferro V. Development of a colorimetric assay for heparanase activity suitable for kinetic analysis and inhibitor screening. […] Fondaparinux is cleaved by heparanase to generate a reducing disaccharide, which can be quantitatively measured via a colorimetric or a fluorescence assay, the last by the fluorescent sensor polymer-H [Schiemann S, Lühn S, Alban S. Development of both colorimetric and fluorescence heparinase activity assays using fondaparinux as substrate.
The assay measures the appearance of the disaccharide product of heparanase-catalyzed fondaparinux cleavage colorimetrically using the tetrazolium salt WST-1. Assay was essentially performed as described with minor modifications. Briefly, NUNC ELISA 96-well plates were pre-treated with a solution of 4% BSA (bovin serum albumin) in phosphate-buffered saline containing 0.05% Tween 20 (PBST), for 2 h at 37°C, then washed three times with PBST, dried by tapping on paper towel and stored at -20°C. Before use, once again, the plates were washed with PBST.
Then, the absorbance at 560 nm was measured through a microplate reader (Victor 3, Perkin Elmer).
Finally, the measurements were corrected by subtracting both the reagent background and the inner absorbance value of test compound.
In general terms: Formazan colour is commonly taken as a measure of viable cells.

In experiment [2] the test system is HT1080 (human fibrosarcoma). In words: SRB Cell Cytotoxicity Assay. Type of experiment: cell-based. The conditions noted are these: HT-1080, HT1080, treated for 72h, read-out: Concentration of test compounds at which the cell growth is inhibited by 50 % HT1080. The source says:
(§1) SRB Cell Cytotoxicity Assay is an assay based upon the quantitative staining of cellular proteins by sulforhodamine B (SRB). This assay can be used for high-throughput drug screening (Vichai & Kirkitara, Nature Protocol. 2006, 1, 112). Sulforhodamine B is an anionic aminoxanthene dye that forms an electrostatic complex with the basic amino acid residues of proteins under moderately acid conditions, which provides a sensitive linear response.
(§2) To assess a putative antiproliferative activity of the selected compounds, HT1080 (human fibrosarcoma), U87MG (human glioblastoma astrocytoma) and U2OS (human osteosarcoma) cell lines were treated for 72h, in triplicate, with increasing concentrations of heparanase inhibitors. Inhibition of cell proliferation was then measured by the classical colorimetric SRB Cell Cytotoxicity assay. Absorbance was measured by spectrophotometer at a wavelength of 510 nm and cell proliferation was determined as percent with respect to control cells (cells treated with the vehicle alone). EC50 values were then determined by GraphPad Prism.

The test system of experiment [3] is U2OS (human osteosarcoma). The experiment is described as follows: SRB Cell Cytotoxicity Assay. The format is cell-based. The conditions noted are these: treated for 72h, read-out: Concentration of test compounds at which the cell growth is inhibited by 50 % U2OS.
Description: as §1, §2

Experiment [4] relates to U87MG (human glioblastoma astrocytoma). In words: SRB Cell Cytotoxicity Assay. Type of experiment: cell-based. The note with it: U-87 MG, treated for 72h, read-out: Concentration of test compounds at which the cell growth is inhibited by 50 % U87MG.
Description: as §1, §2

Where [5] appears, read: 2.5 nM heparanase, 100 µM fondaparinux, pH 5.0, 3 h at 37°C, class symbols, read-out: AGAIA assay (IC50).

The structures appear in SMILES notation. pEC50, pIC50: −log10 of the molar value. Read-outs that look alike come from different tables or passages of the source.

By pIC50 is commonly meant the IC50 on a negative log10 scale, so that one unit is a factor of ten.

As for `O=C(O)c1ccc(Oc2cccc(N3C(=O)c4ccc(Oc5ccc6c(c5)C(=O)N(c5cccc(Oc7ccc(C(=O)O)c(C(=O)O)c7)c5)C6=O)cc4C3=O)c2)cc1C(=O)O` [SST0853, 4-[3-[5-[2-[3-(3,4-dicarboxyphenoxy)phenyl]-1,3-dioxoisoindol-5-yl]oxy-1,3-dioxoisoindol-2-yl]phenoxy]phthalic acid], the pIC50 in experiment [1] (setting [5]) was 6.00 to 6.30. Besides, the pEC50 in experiment [2], in experiment [3] and in experiment [4] was less than 5.60 each time. As to `O=C(Nc1ccccc1C(=O)O)c1ccc2c(c1)C(=O)N(c1ccc(Oc3ccc(N4C(=O)c5ccc(C(=O)Nc6ccccc6C(=O)O)cc5C4=O)cc3)cc1)C2=O` [SST0600, Benzoic acid, 2,2'-[oxybis[4,1-phenylene(1,3-dihydro-1,3-dioxo-2H-isoindole-2,5-diyl)carbonylimino]]bis-], the pIC50 in experiment [1] (setting [5]) was 5.00 to 6.00. Regarding `Nc1ccc2cc(S(=O)(=O)O)cc(O)c2c1N=Nc1ccc(NC(=O)Nc2ccc(N=Nc3c(N)ccc4cc(S(=O)(=O)O)cc(O)c34)c(S(=O)(=O)O)c2)cc1S(=O)(=O)O` [SST0753], the pIC50 in experiment [1] (setting [5]) is 5.00 to 6.00. As to `CC(C)(c1ccc(Oc2ccc3c(c2)C(=O)N(c2cccc(C(=O)O)c2)C3=O)cc1)c1ccc(Oc2ccc3c(c2)C(=O)N(c2cccc(C(=O)O)c2)C3=O)cc1` [SST0851, 3-[5-[4-[2-[4-[2-(3-carboxyphenyl)-1,3-dioxoisoindol-5-yl]oxyphenyl]propan-2-yl]phenoxy]-1,3-dioxoisoindol-2-yl]benzoic acid], the pIC50 in experiment [1] (setting [5]) is 6.00 to 6.30. Moreover, the pEC50 in experiment [2], in experiment [3] and in experiment [4] was less than 5.60 each time. Take `O=C(Nc1cccc(C(=O)c2ccccc2)c1)c1ccc(Oc2ccc(C(=O)Nc3cccc(C(=O)c4ccccc4)c3)cc2)cc1` [SST0801]: the pIC50 in experiment [1] (setting [5]) is 5.00 to 6.00.

As for `O=C(Nc1ccc(O)cc1C(=O)O)c1ccc(Oc2ccc(C(=O)Nc3ccc(O)cc3C(=O)O)cc2)cc1` [SST0810], in experiment [1] (setting [5]), the pIC50 is 5.00 to 6.00.

For `O=C(Nc1ccc(Oc2ccc(NC(=O)c3ccc4c(c3)C(=O)N(c3nccs3)C4=O)cc2)cc1)c1ccc2c(c1)C(=O)N(c1nccs1)C2=O` [SST0816], the pIC50 in experiment [1] (setting [5]) is 5.00 to 6.00. With `O=C(Nc1ccc2c(O)c(N=Nc3ccc(N=Nc4ccc(S(=O)(=O)O)cc4)cc3S(=O)(=O)O)c(S(=O)(=O)O)cc2c1)Nc1ccc2c(O)c(N=Nc3ccc(N=Nc4ccc(S(=O)(=O)O)cc4)cc3S(=O)(=O)O)c(S(=O)(=O)O)cc2c1` [SST0595], in experiment [1] (read-out: AGAIA assay (IC50), 2.5 nM heparanase, 100 µM fondaparinux, pH 5.0, 3 h at 37°C, class symbols), the pIC50 was 6.00 to 6.30. Also, the pEC50 in experiment [2], in experiment [3] and in experiment [4] was less than 5.00 each time. On to `O=C(Nc1cccc(Oc2ccc(S(=O)(=O)c3ccc(Oc4cccc(NC(=O)c5ccc(F)cc5)c4)cc3)cc2)c1)c1ccc(F)cc1` [SST0812], for which the pIC50 in experiment [1] (setting [5]) was 5.00 to 6.00. Same read-out and setting: then `O=C(O)c1ccc(N2C(=O)c3ccc(Oc4cccc(Oc5ccc6c(c5)C(=O)N(c5ccc(C(=O)O)cc5)C6=O)c4)cc3C2=O)cc1` [SST0860, Benzoic acid, 4,4'-[1,3-phenylenebis[oxy(1,3-dihydro-1,3-dioxo-2H-isoindole-5,2-diyl)]]bis-], with 5.00 to 6.00. Still for that read-out and setting: then `O=C(Nc1nc(-c2ccc(F)cc2)cs1)c1ccc(Oc2ccc(C(=O)Nc3nc(-c4ccc(F)cc4)cs3)cc2)cc1` [SST0815], with 5.00 to 6.00. For the compound `O=C(Nc1ccc(NC(=O)c2ccc(N=Nc3ccc(O)cc3O)cc2)c(S(=O)(=O)O)c1)Nc1ccc(NC(=O)c2ccc(N=Nc3ccc(O)cc3O)cc2)c(S(=O)(=O)O)c1` [SST0610], the pIC50 in experiment [1] (setting [5]) is 5.00 to 6.00.

With `O=C(Nc1ccc(Br)cc1C(=O)O)c1ccc(Oc2ccc(C(=O)Nc3ccc(Br)cc3C(=O)O)cc2)cc1` [SST0604, 5-bromo-2-[[4-[4-[(4-bromo-2-carboxyphenyl)carbamoyl]phenoxy]benzoyl]amino]benzoic acid], the pIC50 in experiment [1] (setting [5]) was 5.00 to 6.00.

Take `O=C(Nc1cccc(-c2nc3ccccc3s2)c1)c1ccc(Oc2ccc(C(=O)Nc3cccc(-c4nc5ccccc5s4)c3)cc2)cc1` [SST0802, N-[3-(1,3-benzothiazol-2-yl)phenyl]-4-[4-[[3-(1,3-benzothiazol-2-yl)phenyl]carbamoyl]phenoxy]benzamide]: in experiment [1] (setting [5]), the pIC50 was 5.00 to 6.00.

In turn, `O=C(Nc1ccc(-c2nc3ccccc3o2)cc1)c1ccc(Oc2ccc(C(=O)Nc3ccc(-c4nc5ccccc5o4)cc3)cc2)cc1` [SST0805] gave a negative-log IC50 (pIC50) in experiment [1] of 5.00 to 6.00. Turning to `O=C(O)c1ccc(Oc2ccc3c(c2)C(=O)N(c2ccc(Oc4ccc(N5C(=O)c6ccc(Oc7ccc(C(=O)O)cc7)cc6C5=O)cc4)cc2)C3=O)cc1` [SST0807, 4-[2-[4-[4-[5-(4-carboxyphenoxy)-1,3-dioxoisoindol-2-yl]phenoxy]phenyl]-1,3-dioxoisoindol-5-yl]oxybenzoic acid], the pIC50 in experiment [1] (setting [5]) is 5.00 to 6.00. As to `O=C(O)c1ccc2c(c1)C(=O)N(c1cccc(Oc3cccc(Oc4cccc(N5C(=O)c6ccc(C(=O)O)cc6C5=O)c4)c3)c1)C2=O` [SST0857], the pIC50 in experiment [1] (setting [5]) is 5.00 to 6.00. For the compound `O=C(O)c1ccccc1N1C(=O)c2ccc(Oc3ccc(Oc4ccc5c(c4)C(=O)N(c4ccccc4C(=O)O)C5=O)cc3)cc2C1=O` [SST0855, Benzoic acid, 2,2'-[1,4-phenylenebis[oxy(1,3-dihydro-1,3-dioxo-2H-isoindole-5,2-diyl)]]bis-], the pIC50 in experiment [1] (setting [5]) is 5.00 to 6.00.

As for `O=C(O)c1ccc(NC(=O)c2ccc(Oc3ccc(C(=O)Nc4ccc(C(=O)O)cc4)cc3)cc2)cc1` [SST0809, 4,4'-[oxybis(benzene-4,1-diylcarbonylimino)]dibenzoic acid], the negative logarithm of the IC50 (pIC50) in experiment [1] (setting [5]) was 5.00 to 6.00. Same read-out and setting: then `O=C(Nc1nc(-c2ccc3ccccc3c2)cs1)c1ccc(Oc2ccc(C(=O)Nc3nc(-c4ccc5ccccc5c4)cs3)cc2)cc1` [SST0803], with 5.00 to 6.00. On the same count and under the same terms, under `O=C(O)c1ccc2c(c1)C(=O)N(c1ccc(Oc3ccc(Oc4ccc(N5C(=O)c6ccc(C(=O)O)cc6C5=O)cc4)cc3)cc1)C2=O` [SST0813] stands 5.00 to 6.00.

With `O=C(O)c1cc(NC(=O)c2ccc(Oc3ccc(C(=O)Nc4cc(C(=O)O)cc(C(=O)O)c4)cc3)cc2)cc(C(=O)O)c1` [SST0808, 5-[[4-[4-[(3,5-dicarboxyphenyl)carbamoyl]phenoxy]benzoyl]amino]benzene-1,3-dicarboxylic acid], the pIC50 in experiment [1] (setting [5]) is 5.00 to 6.00. For `O=C(Nc1ccc(O)cc1C(=O)O)c1ccc(S(=O)(=O)c2ccc(C(=O)Nc3ccc(O)cc3C(=O)O)cc2)cc1` [SST0817], in experiment [1], the pIC50 is 6.00 to 6.30.

In the case of `O=C(Nc1csc(-c2ccc(Oc3ccc(-c4nc(NC(=O)c5ccc(C(=O)c6ccccc6)cc5)cs4)cc3)cc2)n1)c1ccc(C(=O)c2ccccc2)cc1` [SST0804], the pIC50 in experiment [1] (setting [5]) is 5.00 to 6.00. Take `CC(C)(c1ccc(Oc2ccc3c(c2)C(=O)N(c2ccc(C(=O)O)cc2)C3=O)cc1)c1ccc(Oc2ccc3c(c2)C(=O)N(c2ccc(C(=O)O)cc2)C3=O)cc1` [SST0852, 4-[5-[4-[2-[4-[2-(4-carboxyphenyl)-1,3-dioxoisoindol-5-yl]oxyphenyl]propan-2-yl]phenoxy]-1,3-dioxoisoindol-2-yl]benzoic acid]: the pIC50 in experiment [1] (setting [5]) was 5.00 to 6.00. On the same count and under the same terms, then `O=C(Nc1ccccc1C(=O)O)c1ccc2c(c1)C(=O)N(c1ccc(S(=O)(=O)c3ccc(N4C(=O)c5ccc(C(=O)Nc6ccccc6C(=O)O)cc5C4=O)cc3)cc1)C2=O` [SST0602, 2-[[2-[4-[4-[5-[(2-carboxyphenyl)carbamoyl]-1,3-dioxoisoindol-2-yl]phenyl]sulfonylphenyl]-1,3-dioxoisoindole-5-carbonyl]amino]benzoic acid], with 5.00 to 6.00.
